Reference: patent US9850283B2, “Macrocyclic inhibitors of the PD-1/PD-L1 and CD80(B7-1)/PD-L1 protein/protein interactions” (BRISTOL-MYERS SQUIBB COMPANY, priority 2013, dated 2017)
Where two headings read alike, the source gives them in different places. Starred links: 1 amine or outer side, 2 acyl side, 3 side chain; linkers in the order of their positions; H or OH if unused. Positions of bridges follow the written chain, without caps; N, C: chain ends. Non-standard residues stand in square brackets, D forms with d. Residues, ends and D or L forms follow the SMILES beside them. ξ: configuration not given here. *: point of attachment. X19 = CCCOc1cccc(-c2[nH]c3ccccc3c2C[C@H](N[*:1])C(=O)[*:2])c1; Pro(trans-4-Ph) = O=C(O)[C@@H]1C[C@@H](c2ccccc2)CN1; Phe(3-CN) = N#Cc1cccc(C[C@H](N)C(=O)O)c1; Phe(4-Br) = N[C@@H](Cc1ccc(Br)cc1)C(=O)O; Phe(4-CN) = N#Cc1ccc(C[C@H](N)C(=O)O)cc1; Bta = N[C@@H](Cc1csc2ccccc12)C(=O)O; Hyp = O=C(O)[C@@H]1C[C@@H](O)CN1; NMeF = CN[C@@H](Cc1ccccc1)C(=O)O; AllylGly = C=CC[C@H](N)C(=O)O; NMeNle = CCCC[C@H](NC)C(=O)O; NMeM = CN[C@@H](CCSC)C(=O)O; ξR = N=C(N)NCCCC(N)C(=O)O; NMeA = CN[C@@H](C)C(=O)O; Dab = NCC[C@H](N)C(=O)O; Dap = NC[C@H](N)C(=O)O; Bz = O=C(c1ccccc1)*; ξC = NC(CS)C(=O)O; Sar = CNCC(=O)O

Assays:
[1] = molecular target: T1, Human PD-L1/PD-1 (Homo sapiens, UniProt Q9NZQ7); test: HTRF PD-1-Ig/PD-L1-His binding assay (human PD-L1); conditions: cluster symbol
T1 construct: made in house; host or cells: HEK293T
T1 sequence (Q9NZQ7 with tags, fused parts or gaps): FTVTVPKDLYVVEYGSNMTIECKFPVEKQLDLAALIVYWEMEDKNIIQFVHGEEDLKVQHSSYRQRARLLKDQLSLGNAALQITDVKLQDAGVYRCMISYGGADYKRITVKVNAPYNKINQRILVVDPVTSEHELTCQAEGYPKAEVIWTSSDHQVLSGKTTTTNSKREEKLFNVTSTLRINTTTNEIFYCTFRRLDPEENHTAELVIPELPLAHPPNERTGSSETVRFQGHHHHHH
Method in brief: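 Readout: time-resolved FRET between Eu cryptate-labeled anti-Ig (1 nM final) and APC-labeled anti-His (20 nM final) antibodies. These detect interaction of Fc-fused PD-1 with His-tagged human PD-L1 in dPBS containing 0.1% BSA and 0.05% Tween-20.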

[2] = molecular target: T2, LK35.2-hPD-L1 cells / PE-labeled PD-1-Ig (Homo sapiens, UniProt Q9NZQ7); test: LK35.2-hPD-L1 cell binding high-content screening assay; format: cell-based; conditions: cluster symbol
T2 construct: expressed in transfected cells; host or cells: LK35.2 mouse B cell line
T2 sequence (Q9NZQ7 19-290): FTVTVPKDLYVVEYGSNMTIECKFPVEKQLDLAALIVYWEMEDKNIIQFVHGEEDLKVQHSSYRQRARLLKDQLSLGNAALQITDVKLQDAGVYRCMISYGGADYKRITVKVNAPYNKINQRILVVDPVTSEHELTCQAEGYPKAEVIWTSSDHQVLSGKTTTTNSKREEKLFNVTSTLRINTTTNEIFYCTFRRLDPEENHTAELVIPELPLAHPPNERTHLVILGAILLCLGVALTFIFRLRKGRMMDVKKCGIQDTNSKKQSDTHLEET
Method in brief: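 Readout: high-content imaging of PE-PD-1-Ig bound to LK35.2-hPD-L1 cells. Cells plated overnight (RPMI/10% FCS); compound + 1 nM PE-PD-1-Ig, 1 h, 37 °C; 3× dPBS wash before imaging.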

[3] = cell binding assay, cell line not given, read-out: CBA IC50 cluster
[4] = cell line of CBA not given (LK35.2-hPD-L1 or 293T-hPD-L1), read-out: CBA IC50 cluster

Structure (SMILES) | IC50 ([1]; read-out: HTRF IC50 cluster) [nM] | IC50 [2, 3] [nM] | IC50 [2, 4] [nM] | IC50 ([1]; HTRF IC50 cluster) [nM] | IC50 ([2]; CBA IC50 cluster, cell line of CBA not given (LK35.2-hPD-L1 or 293T-hPD-L1)) [nM]
CCCC[C@H]1C(=O)N(C)[C@@H](CCCC)C(=O)NC(CCCNC(=N)N)C(=O)N[C@H](C(=O)NCC(N)=O)CSCC(=O)N[C@@H](Cc2ccc(O)cc2)C(=O)N(C)[C@@H](C)C(=O)N[C@@H](CC(N)=O)C(=O)N2CCC[C@H]2C(=O)N[C@@H](CN)C(=O)N[C@@H](CC(C)C)C(=O)N2C[C@H](O)C[C@H]2C(=O)N[C@@H](Cc2c[nH]c3ccccc23)C(=O)N[C@@H](CO)C(=O)N[C@@H](Cc2c(-c3cccc(OCCC)c3)[nH]c3ccccc23)C(=O)N1C (stereo partly shown) [Example 7004] ({CH2CO}-Y[NMeA]NP[Dap]L[Hyp]WS[X19][NMeNle][NMeNle][ξR]CG-NH2; thioether N-14) | 0.385 to 6.74 | 4.78 to 72.9 |  |  | 
CCCC[C@H]1C(=O)N(C)CC(=O)N[C@@H](CC(=O)O)C(=O)N[C@@H](C(C)C)C(=O)N(C)[C@@H](Cc2ccccc2)C(=O)N[C@@H](Cc2ccc(O)cc2)C(=O)N(C)CC(=O)N[C@@H](Cc2c[nH]c3ccccc23)C(=O)N[C@@H](Cc2ccc(O)cc2)C(=O)N[C@@H](CC(C)C)C(=O)N[C@H](C(=O)NCC(N)=O)CSCC(=O)N[C@@H](Cc2ccc(Br)cc2)C(=O)N(C)[C@@H](Cc2ccccc2)C(=O)N1C [Example 3081] ({CH2CO}-[Phe(4-Br)][NMeF][NMeNle][Sar]DV[NMeF]Y[Sar]WYLCG-NH2; thioether N-13) | > 30.5 |  | 4.78 to 72.9 |  | 
C=CC[C@@H]1NC(=O)[C@H](Cc2c[nH]c3ccccc23)NC(=O)[C@@H]2CCCN2C(=O)[C@H](CC(C)C)NC(=O)[C@H](Cc2cnc[nH]2)NC(=O)[C@@H]2CCCN2C(=O)[C@H](CC(N)=O)NC(=O)[C@H](C)N(C)C(=O)[C@H](Cc2ccc(O)cc2)NC(=O)CSC[C@@H](C(=O)NCC(N)=O)NC(=O)[C@H](CC=C)NC(=O)[C@H](CCCC)N(C)C(=O)[C@H](CCCC)N(C)C(=O)[C@H](Cc2c[nH]c3ccccc23)NC1=O [Example 7014] ({CH2CO}-Y[NMeA]NPHLPW[AllylGly]W[NMeNle][NMeNle][AllylGly]CG-NH2; thioether N-14) | 0.385 to 6.74 | 0.158 to 4.71 |  |  | 
CCCC[C@H]1C(=O)N(C)CC(=O)N[C@@H](CC(=O)O)C(=O)N[C@@H](C(C)C)C(=O)N(C)[C@@H](Cc2ccccc2)C(=O)N[C@@H](Cc2ccc(O)cc2)C(=O)N(C)CC(=O)N[C@@H](Cc2c[nH]c3ccccc23)C(=O)N[C@@H](Cc2ccc(O)cc2)C(=O)N[C@@H](CCCN)C(=O)N[C@H](C(=O)NCC(N)=O)CSCC(=O)N[C@@H](Cc2ccccc2)C(=O)N(C)[C@@H](Cc2ccccc2)C(=O)N1C [Example 3163] (HELM PEPTIDE1{[O=C(C[*:3])[*:2]].F.[meF].[CCCC[C@@H](C(=O)[*:2])N(C)[*:1]].[Sar].D.V.[meF].Y.[Sar].W.Y.[Orn].C.G.[am]}$PEPTIDE1,PEPTIDE1,1:R3-14:R3$$$V2.0) | 6.76 to 30.3 |  | 4.78 to 72.9 |  | 
CCCC[C@H]1C(=O)N(C)[C@@H](C)C(=O)N[C@@H](CCCNC(=N)N)C(=O)NC(C(=O)NCC(N)=O)CSCC(=O)N[C@@H](Cc2ccc(O)cc2)C(=O)N(C)[C@@H](C)C(=O)N[C@@H](CC(N)=O)C(=O)N2CCC[C@H]2C(=O)N[C@@H](CO)C(=O)N[C@@H](CC(C)C)C(=O)N2CCC[C@H]2C(=O)N[C@@H](Cc2c[nH]c3ccccc23)C(=O)N[C@@H](CO)C(=O)N[C@@H](Cc2c[nH]c3ccccc23)C(=O)N1C (stereo partly shown) [Example 9110] ({CH2CO}-Y[NMeA]NPSLPWSW[NMeNle][NMeA]R[ξC]G-NH2; thioether N-14) | 0.385 to 6.74 | 4.78 to 72.9 |  |  | 
CCCC[C@H]1C(=O)N(C)[C@@H](CCCC)C(=O)N[C@@H](C)C(=O)N[C@H](C(=O)NCC(N)=O)CSCC(=O)N[C@@H](Cc2ccc(O)cc2)C(=O)N(C)[C@@H](C)C(=O)N[C@@H](CC(N)=O)C(=O)N2CCC[C@H]2C(=O)N[C@@H](CN)C(=O)N[C@@H](CC(=O)O)C(=O)N2C[C@H](O)C[C@H]2C(=O)N[C@@H](Cc2c[nH]c3ccccc23)C(=O)N[C@@H](CO)C(=O)N[C@@H](Cc2c[nH]c3ccccc23)C(=O)N1C [Example 1170] ({CH2CO}-Y[NMeA]NP[Dap]D[Hyp]WSW[NMeNle][NMeNle]ACG-NH2; thioether N-14) | 0.385 to 6.74 |  | 4.78 to 72.9 |  | 
CCCC[C@H]1C(=O)N(C)[C@@H](CCCC)C(=O)N[C@@H](CCCNC(=N)N)C(=O)N[C@H](C(=O)NCC(N)=O)CSCC(=O)N[C@@H](Cc2ccccc2)C(=O)N(C)[C@@H](C)C(=O)N[C@@H](CC(=O)O)C(=O)N2CCC[C@H]2C(=O)N[C@@H](Cc2cnc[nH]2)C(=O)N[C@@H](CC(C)C)C(=O)N(C)CC(=O)N[C@@H](Cc2c[nH]c3ccccc23)C(=O)N[C@@H](CO)C(=O)N[C@@H](Cc2c[nH]c3ccccc23)C(=O)N1C [Example 1092] ({CH2CO}-F[NMeA]DPHL[Sar]WSW[NMeNle][NMeNle]RCG-NH2; thioether N-14) | 6.76 to 30.3 |  | 4.78 to 72.9 |  | 
CCCC[C@H]1C(=O)N(C)[C@@H](CCCC)C(=O)N[C@@H](CCCNC(=N)N)C(=O)N[C@H](C(=O)NCC(N)=O)CSCC(=O)N[C@@H](Cc2ccc(C#N)cc2)C(=O)N(C)[C@@H](C)C(=O)N[C@@H](CC(N)=O)C(=O)N2CCC[C@H]2C(=O)N[C@@H](CN)C(=O)N[C@@H](CC(C)C)C(=O)N2C[C@H](O)C[C@H]2C(=O)N[C@@H](Cc2c[nH]c3ccccc23)C(=O)N[C@@H](CO)C(=O)N[C@@H](Cc2c[nH]c3ccccc23)C(=O)N1C [Example 7038] ({CH2CO}-[Phe(4-CN)][NMeA]NP[Dap]L[Hyp]WSW[NMeNle][NMeNle]RCG-NH2; thioether N-14) | 0.385 to 6.74 | 0.158 to 4.71 |  |  | 
CCCC[C@H]1C(=O)N(C)[C@@H](CCCC)C(=O)N[C@@H](CCCNC(=N)N)C(=O)N[C@H](C(=O)NCC(N)=O)CSCC(=O)N[C@@H](Cc2cccc(C#N)c2)C(=O)N(C)[C@@H](C)C(=O)N[C@@H](CC(N)=O)C(=O)N2CCC[C@H]2C(=O)N[C@@H](Cc2cnc[nH]2)C(=O)N[C@@H](CC(C)C)C(=O)N2C[C@H](O)C[C@H]2C(=O)N[C@@H](Cc2c[nH]c3ccccc23)C(=O)N[C@@H](CO)C(=O)N[C@@H](Cc2c[nH]c3ccccc23)C(=O)N1C [Example 7058] ({CH2CO}-[Phe(3-CN)][NMeA]NPHL[Hyp]WSW[NMeNle][NMeNle]RCG-NH2; thioether N-14) | 6.76 to 30.3 | > 74.3 |  |  | 
CCCC[C@H]1C(=O)N(C)[C@@H](CCCC)C(=O)N[C@@H](CCCN)C(=O)N[C@H](C(=O)NCC(N)=O)CSCC(=O)N[C@@H](Cc2ccc(O)cc2)C(=O)N(C)[C@@H](C)C(=O)N[C@@H](CC(N)=O)C(=O)N2CCC[C@H]2C(=O)N[C@@H](CN)C(=O)N[C@@H](CC(C)C)C(=O)N2C[C@H](Cc3ccc(F)cc3)C[C@H]2C(=O)N[C@@H](Cc2c[nH]c3ccccc23)C(=O)N[C@@H](CO)C(=O)N[C@@H](Cc2c[nH]c3ccccc23)C(=O)N1C [Example 13013] | 0.385 to 6.74 | 0.158 to 4.71 |  |  | 
CCCC[C@H]1C(=O)N(C)[C@@H](CCSC)C(=O)N[C@@H](CCCNC(=N)N)C(=O)NC(C(=O)NCC(N)=O)CSCC(=O)N[C@@H](Cc2ccc(O)cc2)C(=O)N(C)[C@@H](C)C(=O)N[C@@H](CC(N)=O)C(=O)N2CCC[C@H]2C(=O)N[C@@H](Cc2cnc[nH]2)C(=O)N[C@@H](CO)C(=O)N2C[C@H](O)C[C@H]2C(=O)N[C@@H](Cc2c[nH]c3ccccc23)C(=O)N[C@@H](CO)C(=O)N[C@@H](Cc2csc3ccccc23)C(=O)N1C (stereo partly shown) [Example 9108] ({CH2CO}-Y[NMeA]NPHS[Hyp]WS[Bta][NMeNle][NMeM]R[ξC]G-NH2; thioether N-14) | 0.385 to 6.74 | 0.158 to 4.71 |  |  | 
CCCC[C@H]1C(=O)N(C)[C@@H](CCCC)C(=O)N[C@@H](CCC(=O)O)C(=O)N[C@H](C(=O)NCC(N)=O)CSCC(=O)N[C@@H](Cc2ccc(O)cc2)C(=O)N(C)[C@@H](C)C(=O)N[C@@H](CC(=O)O)C(=O)N2CCC[C@H]2C(=O)N[C@@H](Cc2c[nH]cn2)C(=O)N[C@@H](CCCCN)C(=O)N2C[C@H](c3ccccc3)C[C@H]2C(=O)N[C@@H](Cc2c[nH]c3ccccc23)C(=O)N[C@@H](CCCCN)C(=O)N[C@@H](Cc2c[nH]c3ccccc23)C(=O)N1C [Example 14002] ({CH2CO}-Y[NMeA]DPHK[Pro(trans-4-Ph)]WKW[NMeNle][NMeNle]ECG-NH2; thioether N-14) | 0.385 to 6.74 | 0.158 to 4.71 |  |  | 
CCCC[C@H]1C(=O)N(C)[C@@H](CCCC)C(=O)N[C@@H](CC(C)C)C(=O)N[C@H](C(=O)NCC(N)=O)CSCC(=O)N[C@@H](Cc2ccc(O)cc2)C(=O)N(C)[C@@H](C)C(=O)N[C@@H](CC(N)=O)C(=O)N2CCC[C@H]2C(=O)N[C@@H](Cc2c[nH]cn2)C(=O)N[C@@H](CCCCN)C(=O)N2C[C@H](O)C[C@H]2C(=O)N[C@@H](Cc2c[nH]c3ccccc23)C(=O)N[C@@H](CCCCN)C(=O)N[C@@H](Cc2c[nH]c3ccccc23)C(=O)N1C [Example 5089] ({CH2CO}-Y[NMeA]NPHK[Hyp]WKW[NMeNle][NMeNle]LCG-NH2; thioether N-14) | 0.385 to 6.74 | 0.158 to 4.71 |  |  | 
CCCC[C@H]1C(=O)N(C)[C@@H](CCCC)C(=O)N[C@@H](CCCNC(=N)N)C(=O)N[C@H](C(=O)NCC(N)=O)CSCC(=O)N[C@@H](Cc2ccccc2)C(=O)N(C)[C@@H](C)C(=O)N[C@@H](CC(N)=O)C(=O)N2CCC[C@H]2C(=O)N[C@@H](Cc2c[nH]cn2)C(=O)N[C@@H](CC(C)C)C(=O)N[C@@H](CCNC(=O)c2ccccc2)C(=O)N[C@@H](Cc2c[nH]c3ccccc23)C(=O)N[C@@H](CO)C(=O)N[C@@H](Cc2c[nH]c3ccccc23)C(=O)N1C [Example 1022] ({CH2CO}-F[NMeA]NPHL[Dab](Bz)WSW[NMeNle][NMeNle]RCG-NH2; thioether N-14) |  |  |  | > 30.5 | > 74.3
